# Laboratory results as given in patent publication US10766914B2, “DNA alkylating agents” (OBI PHARMA, INC., priority 2015, dated 2020).
# Columns and labels:
# [1] = tested on: H460 non-small cell lung cancer xenograft tumor; assay: Example 4-A antitumor efficacy, ectopic H460 NSCLC xenograft model; format: in vivo, female nude mice (nu/nu)
# Description: (§1) Specific pathogen-free homozygous female nude mice (nu/nu, Charles River Laboratories) were used. Mice were given food and water ad libitum and housed in microisolator cages. Four to six week old animals were identified by microchips (Locus Technology, Manchester, Md., USA) at the time of the experiments. All animal studies were approved by the Institutional Animal Care and Use Committee at Threshold Pharmaceuticals, Inc.
# (§2) All cell lines were from the American Type Culture Collection (ATCC, Rockville, Md., USA).
# (§3) Cells were mixed with Matrigel (50% with exception for 30% in the H460) and 0.2 ml per mouse were subcutaneously implanted to the flank area of the animals. When tumor size reached 100-150 250 mm3, mice were randomized into experimental or vehicle groups with 10 mice/group and treatment was started (Day 1). The tested compounds were formulated in 5% DMSO in D5W. The regimens employed in the examples include IP, QD×5/wk (5 days on, 2 days off) as one cycle, for a total of 2 cycles; IP, once; IP, weekly for total 3 weeks; and IV, weekly for 3 weeks. Tumor growth and body weight were measured twice a week. Tumor volume was calculated as (length×width2)/2. Drug efficacy was assessed as Tumor Growth Inhibition (TGI) and Tumor Growth Delay (TGD). TGI was defined as (1−ΔT/ΔC)×100, where ΔT/ΔC presented the ratio of the change in mean (or median, if variation within the group was relatively large) tumor volume of the treated group and of the control group. TGD was calculated as the extra days for the treated tumor to reach 500 mm3 or 1000 mm3 as compared to the control group. Animals were culled when individual tumor size reached over 2000 mm3 or mean tumor volume exceeded 1000 mm3 in the group. Data are expressed as the mean±SEM. One-way analysis of variance with Dunnett post comparison test (GraphPad Prism 4) or two-tailed student's t-test were used for analysis. A P level <0.05 was considered statistically significant.
# Compounds provided herein were tested in vivo human tumor xenograft models and compared to standard chemotherapeutic agents such as gemcitabine, nab-paclitaxel. […] The compound was dosed as follows: daily IP dosing: 5 doses then 2 days off then 5 more doses starting at 100 mm^3 tumors on day 1 (10 animals per group median tumor volume). It is contemplated that in some embodiments, the compounds provided herein are activated by human and not by mouse enzymes. The antitumor effects and the safety of administration are graphically illustrated in FIGS. 3-20 below.
# [2] = tested on: renal cell carcinoma 786-O xenograft; assay: Example 4-E antitumor efficacy, renal cell carcinoma 786-O xenograft model; format: in vivo, female nude mice (nu/nu); conditions: 40 mpk, qd × 5/wk × 2
# Description: as §1, §2
# Cells were mixed with Matrigel (50% with exception for 30% in the H460) and 0.2 ml per mouse were subcutaneously implanted to the flank area of the animals. When tumor size reached 100-150 250 mm3, mice were randomized into experimental or vehicle groups with 10 mice/group and treatment was started (Day 1). The tested compounds were formulated in 5% DMSO in D5W. […] Tumor growth and body weight were measured twice a week. Tumor volume was calculated as (length×width2)/2. Drug efficacy was assessed as Tumor Growth Inhibition (TGI) and Tumor Growth Delay (TGD). […] TGD was calculated as the extra days for the treated tumor to reach 500 mm3 or 1000 mm3 as compared to the control group. […] Data are expressed as the mean±SEM. […]
# [3] = tested on: A375 melanoma human tumor xenograft; assay: Example 4-C antitumor efficacy, ectopic A375 melanoma xenograft model; format: in vivo, female nude mice (nu/nu); conditions: qd × 5 × 2, ip
# Description: as §1, §2, §3
# his study employed an A375 melanoma human tumor xenograft model and various compounds provided herein were compared to thiotepa and the approved anti melanoma drug, nab-Paclitaxel.
# [4] = Example 4-B body weight change, A549 xenograft study; format: in vivo, female nude mice (nu/nu)
# Method: as §3
# Antitumor effects of compounds provided herein were determined on A 549 non-small cell lung xenograft model in comparison with a chemotherapy agent, thiotepa. The dosing was as follows. Daily IP dosing: 5 doses then 2 days off then 5 more doses starting at 110 mm^3 tumors on day 1 (10 animals per group average tumor volume). The antitumor effects and the safety of administration are graphically illustrated below.
# [5] = tested on: A 549 non-small cell lung xenograft; assay: Example 4-B antitumor efficacy, ectopic A549 NSCLC xenograft model; format: in vivo, female nude mice (nu/nu)
# Description: as §1, §2, §3
# The dosing was as follows. Daily IP dosing: 5 doses then 2 days off then 5 more doses starting at 110 mm^3 tumors on day 1 (10 animals per group average tumor volume).
# Doses were selected by first doing a toxicity test in CD1 mice as described above. The compounds were tested against Thio-tepa.
# [6] = Example 4-A body weight change, H460 xenograft study; format: in vivo, female nude mice (nu/nu); conditions: 40 mg/kg ip QD × 5/wk × 2 wks
# Method: as §3, with “A P level <0.05 was considered statistically significant.” left out
# [7] = Example 4-E body weight change, 786-O xenograft study; format: in vivo, female nude mice (nu/nu); conditions: 40 mpk, qd × 5/wk × 2
# Method: as §3, with “The regimens employed in the examples include IP, QD×5/wk (5 days on, 2 days off) as one cycle, for a total of 2 cycles; IP, once; IP, weekly for total 3 weeks; and IV, weekly for 3 weeks.” left out
# The compound TH-2768 was tested in a renal cell carcinoma 786-O model. The compound was dosed as follows. […]
# [8] = tested on: H460 cells; assay: Proliferation assay in H460 cells (2 hr exposure, AlamarBlue); format: cell-based, human; conditions: Homo sapiens, NCI-H460, 2 hrs exposure, wash, 70 hrs growth, read-out: IC 50 in proliferation assay in H460 cells
# In short: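 H460 cells seeded at 4×10^3/well, grown 24 h, then exposed to compound for 2 h at 37 °C. Drug was washed off and cells were regrown 70 h in fresh medium. Viable cells were read by AlamarBlue, and IC50 was taken as the concentration giving 50% growth inhibition.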
# [9] = Example 4-C body weight change, A375 xenograft study; format: in vivo, female nude mice (nu/nu); conditions: 40 mpk, qd × 5 × 2, ip
# Method: as §3
# his study employed an A375 melanoma human tumor xenograft model and various compounds provided herein were compared to thiotepa and the approved anti melanoma drug, nab-Paclitaxel. The antitumor effects and the safety of administration are graphically illustrated below.
# [10] = tested on: H460 NSCLC xenograft; assay: Example 4-H antitumor efficacy, ectopic H460 NSCLC xenograft model; format: in vivo, female nude mice (nu/nu); conditions: ip, Q7D × 3
# Description: as §1, §2, §3
# The compound TH-3040 was tested in a H460 model. The compound was dosed as follows: 5 or 1.5 mg/kg, IP, weekly for 3 weeks at 100 mm^3 tumors on day 1 (10 animals per group average tumor volume), comparing with nab-Paclitaxel. The antitumor effects and the safety of administration are graphically illustrated below.
# [11] = tested on: H460 NSCLC xenograft; assay: Example 4-F antitumor efficacy, ectopic H460 NSCLC xenograft model; format: in vivo, female nude mice (nu/nu); conditions: ip, once
# Description: as §1, §2, §3
# (§4) The compounds TH-2953 and TH-3040 were tested in a H460 model. The compounds were dosed as follows. A dose-dependent TH-2953 was given IP once, from 6.25 to 100 mg/kg, comparing with daily IP: 5 doses then 2 days off then 5 more doses starting at 100 mm^3 tumors on day 1 (10 animals per group average tumor volume). TH-3040 was administered IP once. The antitumor effects and the safety of administration are graphically illustrated below.
# [12] = Example 4-G body weight change, H460 xenograft study; format: in vivo, female nude mice (nu/nu); conditions: ip, Q7D × 3
# Method: as §3
# (§5) The compounds TH-3040 and TH-3045 were tested in a H460 model. The compounds were dosed as follows. A dose-dependent TH-3040 or TH-3045 was given IP weekly for 3 weeks, from 5 to 45 mg/kg starting at 100 mm^3 tumors on day 1 (10 animals per group average tumor volume). The antitumor effects and the safety of administration are graphically illustrated below.
# [13] = Example 4-H body weight change, H460 xenograft study; format: in vivo, female nude mice (nu/nu); conditions: ip, Q7D × 3
# Method: as §3, with “A P level <0.05 was considered statistically significant.” left out
# [14] = tested on: H460 NSCLC xenograft; assay: Example 4-G antitumor efficacy, ectopic H460 NSCLC xenograft model; format: in vivo, female nude mice (nu/nu); conditions: ip, Q7D × 3
# Description: as §1, §2, §3, §5
# [15] = Example 4-F body weight change, H460 xenograft study; format: in vivo, female nude mice (nu/nu); conditions: ip, once
# Method: as §3, §4
# [16] = background statement; cited from earlier work
# [17] = target: T1, AKR1C3 (Homo sapiens, UniProt P42330); conditions: background statement; cited from earlier work
# T1 sequence (P42330 1-323): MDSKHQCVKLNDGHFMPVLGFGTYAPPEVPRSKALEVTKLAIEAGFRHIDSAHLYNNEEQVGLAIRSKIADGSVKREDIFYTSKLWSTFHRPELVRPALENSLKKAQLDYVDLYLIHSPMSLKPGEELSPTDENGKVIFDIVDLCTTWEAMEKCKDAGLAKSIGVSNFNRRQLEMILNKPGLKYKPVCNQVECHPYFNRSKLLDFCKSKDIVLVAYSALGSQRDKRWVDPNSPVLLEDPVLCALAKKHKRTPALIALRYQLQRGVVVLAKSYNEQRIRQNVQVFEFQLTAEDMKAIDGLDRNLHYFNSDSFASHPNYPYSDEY
# [18] = 40 mg/kg ip QD × 5/wk × 2 wks, H460
structure (smiles),measurement,setting,value
CC(OP(=O)(N1CC1)N1CC1)c1ccc([N+](=O)[O-])c(Oc2ccccc2)c1 (stereo not drawn) [Compound 2768],TGD 500,[1]; [18],56 days
same,TGD 1000,[1]; [18],62 days
same,TGI,[1]; [18],104.1%
same,antitumor effect as a monotherapy,"[1]; H460 study, versus gemcitabine",superior to the effect of gemcitabine
same,TGI,[2]; ip,73.0%
same,TGD 500,[3]; 40 mpk,7 days
same,TGD 1000,[3]; 40 mpk,7 days
same,inhibition in vivo at 40 mg/kg,"[3]; Mus musculus, A-375, 40 mpk, read-out: TGI",36.7%
same,Max. BW loss %,[4]; 40 mg/kg ip QD × 5/wk × 2 wks,0.0%
same,Max. BW loss %,[4]; 80 mg/kg ip QD × 5/wk × 2 wks,4.8%
same,TGD 500,[5]; 40 mg/kg ip QD × 5/wk × 2 wks,>72 days
same,TGI,[5]; 40 mg/kg ip QD × 5/wk × 2 wks,100.6%
same,TGD 500,[5]; 80 mg/kg ip QD × 5/wk × 2 wks,>72 days
same,TGI,[5]; 80 mg/kg ip QD × 5/wk × 2 wks,104.4%
same,Max. BW loss %,[6],4.0%
same,Max. BW loss %,[7]; ip,0.0%
same,IC50,[8],40 nM
same,Max. BW loss %,[9],0%
C[C@H](OP(=O)(N1CC1)N1CC1)c1ccc([N+](=O)[O-])c(Oc2ccc(-c3ccccc3)cc2)c1 [Compound 3040],"TGD500, Days (vs. vehicle)",[10]; 1.5 mg/kg,15 days
same,"TGD1000, Days (vs. vehicle)",[10]; 1.5 mg/kg,19 days
same,TGI,[10]; 1.5 mg/kg,80.6%
same,"TGD500, Days (vs. vehicle)",[10]; 5 mg/kg,36 days
same,"TGD1000, Days (vs. vehicle)",[10]; 5 mg/kg,41 days
same,TGI,[10]; 5 mg/kg,101.9%
same,TGD 500,[11]; 25 mpk,17 days
same,TGD 1000,[11]; 25 mpk,17 days
same,TGI,[11]; 25 mpk,80.5%
same,TGD 500,[11]; 100 mpk,20 days
same,TGD 1000,[11]; 100 mpk,23 days
same,TGI,[11]; 100 mpk,93.7%
same,Max BW loss,[12]; 5 mpk,2.5%
same,Max BW loss,[12]; 15 mpk,1.0%
same,Max BW loss,[12]; 45 mpk,0.0%
same,Max. BW loss %,[13]; 1.5 mg/kg,7.2%
same,Max. BW loss %,[13]; 5 mg/kg,5.2%
same,TGD 500,[14]; 5 mpk,40 days
same,TGI,[14]; 5 mpk,103.5%
same,TGD 500,[14]; 15 mpk,60 days
same,TGI,[14]; 15 mpk,104.3%
same,TGD 500,[14]; 45 mpk,66 days
same,TGI,[14]; 45 mpk,106.4%
same,Max. BW loss %,[15]; 25 mpk,1.3%
same,Max. BW loss %,[15]; 100 mpk,0.0%
same,IC50,[8],4 nM
CS(=O)(=O)OCCN(CCBr)c1c(C(=O)NCCOP(=O)(O)O)cc([N+](=O)[O-])cc1[N+](=O)[O-] [PR 104],efficacy in clinical trials,[16],ineffective
same,substrate for AKR1C3,[17],weak substrate
"CCN(CC)CCNC(=O)c1c(C)[nH]c(/C=C2\C(=O)Nc3ccc(F)cc32)c1C [Sunitinib, sunitinib, reference compound]",TGI,[2]; po,67.8%
same,Max. BW loss %,[7]; po,0.3%
